Assay results reported in ChEMBL document CHEMBL1127218, “Synthesis, anti-human immunodeficiency virus, and anti-hepatitis B virus activity of pyrimidine oxathiolane nucleosides” (Bioorg Med Chem Lett, 1993).

Assays:
HepG2 [1] = assay: Percent inhibition for its anti-HBV activity in infected HepG2(2.2.15) cells at concentration of 25 uM; type: functional; details: Homo sapiens
Vero = assay: Compound was tested for its cytotoxic activity in uninfected Vero cells; type: functional, cell-based; details: Chlorocebus sabaeus
[2] = Compound was tested for its cytotoxic activity in uninfected human peripheral blood mononuclear (PBM) cells; type: functional
MT4 = assay: Compound was tested for its anti-HIV activity in acutely infected MT-4 cells; type: functional, cell-based; details: Homo sapiens
[3] = Compound was tested for its anti-HIV activity against HIV-1 LAI in human peripheral blood mononuclear (PBM) cells; type: functional
HepG2 [4] = assay: Percent inhibition for its anti-HBV activity in infected HepG2(2.2.15) cells at concentration of 1 uM; type: functional; details: Homo sapiens

Structure (SMILES)	EC50 [3]	inhibition at 25 µM (HepG2 [1])	IC50 (Vero)	IC50 [2]	EC50 (MT4)	inhibition at 1 µM (HepG2 [4])
O=c1[nH]c(=O)n([C@H]2CS[C@@H](CO)O2)cc1Cl	60.8 µM	59%	> 100 µM	> 100 µM	> 200 µM	
Cc1cn([C@H]2CS[C@@H](CO)O2)c(=O)[nH]c1=O	64.4 µM	0%	> 100 µM	> 100 µM	> 200 µM	
Nc1nc(=O)n([C@H]2CS[C@@H](CO)O2)cc1Cl	38.7 µM	58%	> 100 µM	> 100 µM	> 200 µM	
O=c1[nH]c(=O)n([C@H]2CS[C@@H](CO)O2)cc1I	> 100 µM	0%	> 100 µM	> 100 µM	> 200 µM	
Nc1nc(=O)n([C@H]2CS[C@@H](CO)O2)cc1I	0.72 µM	55%	> 100 µM	> 100 µM	> 200 µM	
Cc1cn([C@H]2CS[C@@H](CO)O2)c(=O)nc1N	> 100 µM	0%	> 100 µM	> 100 µM	> 200 µM	

More lines, main results first:

EC50 [3]	Structure (SMILES)	inhibition at 25 µM (HepG2 [1])	IC50 (Vero)	IC50 [2]	EC50 (MT4)	inhibition at 1 µM (HepG2 [4])
> 100 µM	O=c1ccn([C@H]2CS[C@@H](CO)O2)c(=O)[nH]1	0%	> 100 µM	> 100 µM	> 200 µM	
2.4 µM	Nc1nc(=O)n([C@H]2CS[C@@H](CO)O2)cc1Br	84%	> 100 µM	> 100 µM	> 200 µM	
0.01 µM	Nc1nc(=O)n([C@H]2CS[C@@H](CO)O2)cc1F		> 100 µM	> 100 µM	2.1 µM	90%
> 100 µM	O=c1[nH]c(=O)n([C@H]2CS[C@@H](CO)O2)cc1Br	11%	> 100 µM	> 100 µM	> 200 µM	
0.06 µM	Nc1ccn([C@@H]2CS[C@H](CO)O2)c(=O)n1 [LAMIVUDINE]		> 100 µM	> 100 µM	7 µM	87%
> 100 µM	O=c1[nH]c(=O)n([C@H]2CS[C@@H](CO)O2)cc1F	75%	> 100 µM	> 100 µM	> 200 µM	
